The record followed here is patent US7790751B2, “Azinyl-3-sulfonylindazole derivatives as 5-hydroxytryptamine-6 ligands” (Wyeth LLC, priority 2005, dated 2010).

SMILES strings stand for the structures. Where a name gives a salt, the structure may show the parent alone.

Sequence of human cloned 5-HT6 receptors (P50406 whole entry): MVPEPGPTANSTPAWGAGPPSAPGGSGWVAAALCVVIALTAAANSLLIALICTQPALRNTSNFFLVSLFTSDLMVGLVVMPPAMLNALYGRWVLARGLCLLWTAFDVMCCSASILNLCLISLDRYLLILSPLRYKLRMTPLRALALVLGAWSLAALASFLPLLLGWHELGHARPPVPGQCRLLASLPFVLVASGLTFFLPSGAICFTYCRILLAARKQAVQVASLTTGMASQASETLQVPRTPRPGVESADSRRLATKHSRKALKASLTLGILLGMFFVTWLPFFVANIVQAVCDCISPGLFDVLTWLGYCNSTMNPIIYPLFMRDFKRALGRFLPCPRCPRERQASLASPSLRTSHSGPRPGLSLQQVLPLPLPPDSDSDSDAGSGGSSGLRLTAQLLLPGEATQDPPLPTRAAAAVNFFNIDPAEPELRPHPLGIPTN

This test addresses human cloned 5-HT6 receptors (Homo sapiens, UniProt P50406). In words: Evaluation of 5-HT6 binding affinity of test compounds ([3H]-LSD displacement).
Broadly, the Ki is the equilibrium dissociation constant of an inhibitor or competing ligand from its target. Low readings indicate a stronger hold on the target, high ones a looser hold on the target. On to `O=S(=O)(c1ccccc1Cl)c1n[nH]c2ccc(OC3CCNCC3)cc12` [Example 9, 3-[(2-chlorophenyl)sulfonyl]-5-(piperidin-4-yloxy)-1H-indazole], for which the Ki was > 45 nM.

Molecule `O=S(=O)(c1cccc2ccccc12)c1n[nH]c2ccc(OC3CCNCC3)cc12` [Example 6, 3-(1-Naphthylsulfonyl)-5-(piperidin-4-yloxy)-1H-indazole Hydrochloride] registered a Ki of 0.01 to 10 nM. With `Cc1cccc(S(=O)(=O)c2n[nH]c3ccc(NC4CCNCC4)cc23)c1` [Example 51, 3-[(3-methylphenyl)sulfonyl]-N-piperidin-4-yl-1H-indazol-5-amine] the figure was 0.01 to 10 nM. `O=S(=O)(c1cccc2ccccc12)c1n[nH]c2c(NC3CCNCC3)cccc12` [Example 36, 3-(1-Naphthylsulfonyl)-N-piperidin-4-yl-1H-indazol-7-amine Dihydrochloride] registered a Ki of 26 to 35 nM. As for `O=S(=O)(c1cccc2ccccc12)c1n[nH]c2c(NC3CCCNC3)cccc12` (stereo not shown) [Example 37, 3-(1-Naphthylsulfonyl)-N-piperidin-3-yl-1H-indazol-7-amine Dihydrochloride], the inhibitory constant (Ki) is > 45 nM. The molecule `O=C(Nc1cccc2c(S(=O)(=O)c3cccc4ccccc34)n[nH]c12)C1CCNCC1` [Example 54, N-[3-(1-Naphthylsulfonyl)-1H-indazol-7-yl]piperidine-4-carboxamide Dihydrochloride] displayed a Ki of 26 to 35 nM. With `O=S(=O)(c1ccc(C(F)(F)F)cc1)c1n[nH]c2ccc(NC3CCNCC3)cc12` [Example 48, N-piperidin-4-yl-3-{[4-(trifluoromethyl)phenyl]sulfonyl}-1H-indazol-5-amine] the figure was 0.01 to 10 nM. Turning to `O=C(Nc1ccc2c(S(=O)(=O)c3cccc4ccccc34)n[nH]c2c1)C1CCNCC1` [Example 53, N-[3-(1-Naphthylsulfonyl)-1H-indazol-6-yl]piperidine-4-carboxamide Dihydrochloride], the Ki was in the range of 26 to 35 nM. For the molecule `CCCN1CCC(Oc2ccc3[nH]nc(S(=O)(=O)c4cccc5ccccc45)c3c2)C1` (stereo not shown) [Example 3, 3-(Naphthalene-1-sulfonyl)-5-(1-propyl-pyrrolidin-3-yloxy)-1H-indazole Hydrochloride], the Ki is 0.01 to 10 nM. In turn, `O=S(=O)(c1cccc(F)c1)c1n[nH]c2ccc(OC3CCNCC3)cc12` [Example 8, 3-[(3-fluorophenyl)sulfonyl]-5-(piperidin-4-yloxy)-1H-indazole] registered a Ki of 11 to 25 nM.

The molecule `O=S(=O)(c1ccccc1)c1n[nH]c2ccc(NC3CCNCC3)cc12` [Example 49, 3-(phenylsulfonyl)-N-piperidin-4-yl-1H-indazol-5-amine] returned a Ki of 0.01 to 10 nM. The value for `O=S(=O)(c1cccc2ccccc12)c1n[nH]c2cc(NC3CCCNC3)ccc12` (stereo not shown) [Example 34, 3-(1-Naphthylsulfonyl)-N-piperidin-3-yl-1H-indazol-6-amine Dihydrochloride] was > 45 nM; that for `O=S(=O)(c1cccc2ccccc12)c1n[nH]c2c(NCC3CCNCC3)cccc12` [Example 38, 3-(1-Naphthylsulfonyl)-N-(piperidin-4-ylmethyl)-1H-indazol-7-amine Dihydrochloride] was 11 to 25 nM; that for `CC(C)N1CCC(Oc2ccc3[nH]nc(S(=O)(=O)c4cccc5ccccc45)c3c2)CC1` [Example 22, 5-(1-Isopropylpiperidin-4-yloxy)-3-(1-naphthylsulfonyl)-1H-indazole Hydrochloride] was 0.01 to 10 nM. The molecule `O=S(=O)(c1ccc(C(F)(F)F)cc1)c1n[nH]c2ccc(OC3CCNCC3)cc12` [Example 16, 5-(piperidin-4-yloxy)-3-{[4-(trifluoromethyl)phenyl]sulfonyl}-1H-indazole] gave a Ki of 11 to 25 nM. For the molecule `O=S(=O)(c1ccc(Cl)cc1)c1n[nH]c2ccc(NC3CCNCC3)cc12` [Example 43, 3-[(4-chlorophenyl)sulfonyl]-N-piperidin-4-yl-1H-indazol-5-amine], the Ki was 0.01 to 10 nM.
